# Residue numbers refer to the chain shown, from its start.
# Experiments:
# Assay type in all cases: cell-based
# TMEM16A [1] = target: T1, TMEM16A (Mus musculus, UniProt Q8BHY3, T539A); assay: whole-cell patch clamp of mutant channel in HEK293T cells, […] TF; details: HEK-293T
# T1 construct: gene Ano1; mouse TMEM16A (NM_178642.5)
# T1 sequence (Q8BHY3 1-960 T539A): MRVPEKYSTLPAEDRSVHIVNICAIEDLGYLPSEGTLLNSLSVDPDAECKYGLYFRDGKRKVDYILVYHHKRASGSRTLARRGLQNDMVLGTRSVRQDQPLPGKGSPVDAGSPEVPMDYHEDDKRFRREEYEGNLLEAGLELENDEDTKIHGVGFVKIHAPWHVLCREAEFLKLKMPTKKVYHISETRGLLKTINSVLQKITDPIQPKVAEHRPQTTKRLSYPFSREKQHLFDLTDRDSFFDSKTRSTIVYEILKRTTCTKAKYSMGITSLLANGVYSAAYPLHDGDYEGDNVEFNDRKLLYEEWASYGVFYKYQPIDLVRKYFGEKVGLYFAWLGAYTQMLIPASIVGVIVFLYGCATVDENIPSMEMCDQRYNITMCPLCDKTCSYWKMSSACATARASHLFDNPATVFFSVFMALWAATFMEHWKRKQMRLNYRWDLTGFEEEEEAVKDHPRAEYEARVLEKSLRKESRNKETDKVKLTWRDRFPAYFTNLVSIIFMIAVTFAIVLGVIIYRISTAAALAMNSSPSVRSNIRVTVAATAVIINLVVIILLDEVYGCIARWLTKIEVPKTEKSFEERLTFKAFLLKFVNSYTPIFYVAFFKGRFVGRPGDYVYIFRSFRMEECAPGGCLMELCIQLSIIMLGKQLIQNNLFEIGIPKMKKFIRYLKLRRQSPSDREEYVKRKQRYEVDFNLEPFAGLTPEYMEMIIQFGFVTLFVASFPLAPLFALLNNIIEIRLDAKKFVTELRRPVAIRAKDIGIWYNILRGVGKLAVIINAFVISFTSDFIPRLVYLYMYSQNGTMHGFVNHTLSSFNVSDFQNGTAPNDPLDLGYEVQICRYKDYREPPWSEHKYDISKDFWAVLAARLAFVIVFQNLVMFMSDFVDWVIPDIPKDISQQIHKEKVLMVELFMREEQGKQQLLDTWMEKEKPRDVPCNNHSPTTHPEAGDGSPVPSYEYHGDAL
# TMEM16A [2] = target: T2, TMEM16A (Mus musculus, UniProt Q8BHY3); assay: whole-cell patch clamp, recombinant channel in HEK293T cells; supported by mutagenesis
# T2 construct: gene Ano1; mouse TMEM16A (NM_178642.5)
# T2 sequence (Q8BHY3 1-960): T1 sequence (Q8BHY3 1-960 T539A) with A539T
# TMEM16A [3] = target: T3, TMEM16A (Mus musculus, UniProt Q8BHY3, R535A); assay: whole-cell patch clamp of mutant channel in HEK293T cells, […] TF; details: HEK-293T
# T3 construct: gene Ano1; mouse TMEM16A (NM_178642.5)
# T3 sequence (Q8BHY3 1-960 R535A): T1 sequence (Q8BHY3 1-960 T539A) with R535A, A539T
# TMEM16A [4] = target: T4, TMEM16A (Mus musculus, UniProt Q8BHY3, K603A); assay: as above; details: HEK-293T
# T4 construct: gene Ano1; mouse TMEM16A (NM_178642.5)
# T4 sequence (Q8BHY3 1-960 K603A): T1 sequence (Q8BHY3 1-960 T539A) with A539T, K603A
smiles,measurement,setting,value
"O=c1c(O)cc([C@H]2Oc3cc(O)cc(O)c3C[C@H]2O)cc2c([C@H]3Oc4cc(O)cc(O)c4C[C@H]3O)cc(O)c(O)c12 [TF, theaflavin]",inhibition at 10 µM,TMEM16A [1],51%
same,IC50,TMEM16A [2],750 ± 130 nM
same,inhibition at 10 µM,TMEM16A [3],71%
same,inhibition at 10 µM,TMEM16A [4],54%
